The text below walks through data of a melting point compilation (Tetko et al.).

As for `Cc1c[nH]c(-c2ccccc2)n1`, the melting point was 175 °C.
Next, `OC1CCC(Cl)CC1` (stereo not given): 82.5 °C.
For `CC1CC2C3CC(F)C4=CC(=O)C=CC4(C)C3(F)C(O)CC2(C)C1C(=O)CO` (stereo not given) the value was 242 °C; for `COc1ccc2cc(C(=O)c3cc4ccc(OC)cc4oc3=O)c(=O)oc2c1`, 271 °C; for `O=CC12CC=CCC1C1CC=CCC1O2` (stereo not given), -80 °C.
For the compound `CN(C)c1nncc(-c2cnnc(N(C)C)n2)n1`, the melting point came out at 224 °C.
For `Cc1ccc(-c2cc(N)n(-c3ccccc3)n2)cc1` the value was 173 to 176 °C; for `NCC(=O)O`, 182 °C; for `Nc1ccc(-c2ccc(N)cc2C(F)(F)F)c(C(F)(F)F)c1`, 183 °C.
For `O=C(O)c1cc2cc([N+](=O)[O-])ccc2o1` the value was 274 to 275 °C.
On to `CC(=O)C(C)=NO`, for which the melting point was 76.8 °C.
In turn, `O=C(Nc1ccccc1)OCc1c([N+](=O)[O-])cccc1[N+](=O)[O-]` gave a melting point of 138 °C.
Consider `Cc1cc(C(=O)O)cc(C)c1[N+](=O)[O-]`, for which the melting point turned out to be 224 °C.
In turn, `Cc1ccc2cc(C(=O)O)ccc2n1` registered a melting point of 250 °C.
For `O=[N+]([O-])c1ccc(/C=N/n2c(S)nnc2C(F)(F)F)cc1` the value was 193 °C.
Next, `CC(=O)OC[C@@H](OC(C)=O)[C@@H](OC(C)=O)[C@H](OC(C)=O)[C@@H](OC(C)=O)C(=O)O`: 109 to 111 °C; `O=Cc1ccc(N2CCCC2)nc1`: 89 to 90 °C.
Next, `O=c1c2ccccc2ccc2ccccc12`: 88.5 °C; `O=C1CC2C(CC(OC(=O)c3ccc(-c4ccccc4)cc3)C2CO)O1` (single isomer, unassigned; (-)): 128 to 134 °C; `CC(C)(C)C1=CC(=Cc2cc(C(C)(C)C)c(O)c(C(C)(C)C)c2)C=C(C(C)(C)C)C1=O`: 156 to 160 °C.
`Cc1noc(-c2ccccc2)c1C(=O)O`: the melting point fell in the range of 190 to 191 °C.
For `OCCN(CCO)Cc1ccc(COc2ccccc2)cc1` the value was 88 °C.
As for `CNc1cccc2ccccc12`, the melting point came out at 174 °C.
For `CC1(C)CC(=O)c2cc(-c3ccccc3)n(Cc3cccnc3)c2C1` the value was 146 to 148 °C; for `CCc1ccccc1-n1c(C)nc2ccccc2c1=O`, 81 °C.
In turn, `BrC(Br)c1ccc(C(Br)Br)cc1` yielded a melting point of 170 to 173 °C.
`CN(C)c1ccc(F)cc1` had a melting point of 36 °C.
Regarding `CCCNc1cc(=O)oc2ccccc12`, the melting point was 111 °C.
For `CCCC(C)CC` (stereo not given) the value was -119 °C; for `CCN(CC)CC(=O)OCC(=O)C1(O)CCC2C3CCC4=CC(=O)CCC4(C)C3C(O)CC21C` (stereo not given), 162 °C; for `OC(CCl)CCl`, -4 °C.
`CCCCCCCCCCCCCCCCOc1ccc(C(=O)O)cc1`: the melting point was 132 °C.
`O=C1CSC(=S)N1c1ccccc1` came in with a melting point of 194 °C.
For `COc1c(F)c(F)cc(C(=O)O)c1F` the value was 115 °C.
Next, `COc1ccc(Cl)cc1N=C=O`: 60 to 62 °C; `COC(=O)c1scc(C)c1N`: 86 to 87 °C.
The compound `O=C(Nc1ccc2ncccc2c1)Nc1ccc2ncccc2c1` displayed a melting point of 262 °C.
For `Cc1c(C)c(C#N)c2ccccc2c1C#N` the value was 261 to 264 °C; for `COc1cc([C@@H](O)[C@H](CO)Oc2c(OC)cccc2OC)cc(OC)c1OC`, 105 °C; for `Cc1nn(C)c2ncc(C(N)=O)c(Cl)c12`, 275 °C.
Next, `O=C(O)C1=Cc2cc(Cl)ccc2OC1`: 245 °C; `OCc1cccnc1N1CCCC1`: 74 to 76 °C.
The compound `COc1cc(C(=O)c2ccccc2Cl)c([N+](=O)[O-])cc1OC` came in with a melting point of 122 °C.
For `C=C1C(=O)C23C4CC5C(C)(C)CCC(OC(C)=O)C5(C(OC(C)=O)O4)C2C(OC(C)=O)CC1C3OC(C)=O` (stereo not given), the melting point worked out at 230 °C.
For `CCCCCCCOc1ccc(O)cc1` the value was 61.5 °C.
Next, `CN1C(=O)C(O)N=C(c2ccccc2Cl)c2cc(Cl)ccc21` (stereo not given): 206 °C; `NS(=O)(=O)c1ccc(Cl)c(S(N)(=O)=O)c1`: 207 °C; `CC(C)(C)N(CCO)CCO`: 42 °C.
Next, `CC(O)C#N` (stereo not given): -40 °C; `CC(=O)OCCc1ccc(CCOC(C)=O)cc1`: 65 °C.
In the case of `CCOC(=O)C1=Nc2cc3c(cc2=C1OC(C)=O)C(OC(C)=O)=C(C(=O)OCC)N=3`, the melting point came out at 178 °C.
For `O=C(Cc1ccc(-c2ccccc2)cc1)Nc1ccccn1` the value was 122 °C.
`Cc1ccc(Nc2ccc([N+](=O)[O-])cc2N)cc1` yielded a melting point of 160 °C.
In turn, `O=[N+]([O-])c1ccc(N2CCCNCC2)nc1` had a melting point of 111 to 112 °C.
For `O=C(O)c1cncc(-c2ccccc2)c1` the value was 260 °C; for `CC12CCC3C(CCC4(C)CC(=O)CCC34C)C1CCC2=O` (stereo not given), 148 °C; for `COc1c(Br)cc(Br)cc1Br`, 88 °C.
For `C[C@@]12CC[C@@H]3[C@H](CC[C@]4(C)C(=O)CC[C@]34C)[C@@]1(C)CCC(=O)C2` the value was 184 to 186 °C; for `COC(=O)c1ccnc(N)c1`, 147 °C.
For `Cc1onc(-c2ccccc2)c1C(=O)O` the value was 192 to 193 °C; for `CC(=O)c1ccc(O)c(C(N)=O)c1`, 221 to 226 °C; for `NC(=O)C1CCN(c2nccc(C(F)(F)F)n2)CC1`, 194 to 196 °C.
`N#Cc1cccc(C(=O)Cc2cccc(Oc3ccccc3)c2)c1` had a melting point of 63.7 to 65.5 °C.
Next, `Cc1ncc(CSSCc2cnc(C)c(O)c2CO)c(CO)c1O`: 219 °C; `CCCCCCCCCCCS`: -3 °C.
The compound `COc1cccc(OC)c1N=C=O` showed a melting point of 45 to 47 °C.
For `COCCl` the value was -104 °C.
Take `COc1ccc(C(O)(c2cncnc2)C2CC2)cc1` (stereo not given): the melting point is 110 °C.
Next, `Cn1nc(CO)cc1-c1ccco1`: 43 to 48 °C; `N#CCc1csc2ccccc12`: 64 °C.
For the compound `CN1C(=O)CN=C(c2ccccc2)c2cc([N+](=O)[O-])ccc21`, the melting point stood at 157 °C.
In turn, `Clc1ccc2c(c1)C(c1ccccc1)=NCc1nncn1-2` returned a melting point of 228 °C.
Next, `CNC(=O)Oc1ccc(C)c(C)c1`: 79.5 °C.
Next, `CCC(CC)(CO)CO`: 61.5 °C.
For `O=C(c1ccccc1)C1C(=O)c2ccccc2C1=O` the value was 108 to 112 °C; for `C=C1C(=O)C23C(OC)CC4C5(C)CCCC4(COC5)C2C(OC(C)=O)CC1C3O` (stereo not given), 183 °C; for `O=Cc1ccc(-c2ccc(-c3cccs3)s2)s1`, 133 to 135 °C.
In the case of `Nc1ccc(Br)c(F)c1`, the melting point was determined as 68 °C.
Next, `CC12CCC3C(CCC4CC(=O)CCC43C)C1CCC2O` (stereo not given): 181 °C; `CC(C)(NO)C(=NO)c1ccccc1`: 153 to 154 °C; `Cc1c(C)c(C)c(CCl)c(CCl)c1C`: 135 °C.
For the compound `Nc1ccncc1C(F)(F)F`, the melting point worked out at 100 °C.
`Cc1nc(-c2ccc(S(=O)(=O)N3CCOCC3)cc2)c(-c2ccc(S(=O)(=O)N3CCOCC3)cc2)o1` displayed a melting point of 245 to 248 °C.
Next, `O=[N+]([O-])c1cc(N=C=S)ccc1Cl`: 66 °C; `O=Cc1ccc(F)c(C(=O)O)c1`: 175 to 178 °C.
`C=CC1(C)CCC2C(=CCC3C(C)(C(=O)O)CCCC23C)C1` (stereo not given): the melting point was 160 °C.
With `OCC1OC1c1ccccc1` (stereo not given), the melting point was 51 to 53 °C.
For `Cc1ccccc1CS(=O)(=O)Cl` the value was 52 to 53 °C.
Compound `CC12CCC(C(=CC(=O)O)C1=O)C2(C)C` (stereo not given) showed a melting point of 106 °C.
Next, `CCCc1c(O)ccc2c(=O)cc(C(=O)O)oc12`: 264 to 267 °C; `NC(=O)C=CC(N)=O`: 276 °C; `N#CSCc1c(Cl)cccc1Cl`: 39 to 42 °C.
On to `Nc1cc(F)ccc1-n1ccnc1`, for which the melting point was 127 °C.
For `FCF` the value was -136 °C; for `OCCC(F)(F)C(F)(F)C(F)(F)C(F)(F)C(F)(F)C(F)(F)C(F)(F)C(F)(F)F`, 46.2 °C; for `Cc1ccccc1N`, -16.3 °C.
Next, `NC(=O)CCCCC(N)=O`: 226 °C; `Fc1c(F)c(F)c(CBr)c(F)c1F`: 19 °C; `CCC1CN2CCC1CC2C(O)c1ccnc2ccc(OCCC(C)C)cc12` (stereo not given): 152 °C.
Turning to `COC(=O)CNC(SC)=C(C#N)C#N`, the melting point was 90 °C.
The compound `N#CCc1ccc(-c2ccccc2)cc1` returned a melting point of 95 °C.
For `C1CNCCCNCCNCCCNC1`, the melting point lay within 98 to 102 °C.
For `CC(C)NCC(O)c1cc(O)cc(O)c1` (stereo not given) the value was 100 °C; for `Nc1ccc(S)cc1`, 46 °C; for `CC1=CC(c2ccccc2)c2ccccc21` (stereo not given), 61 °C.
As for `CCCCCCCCCCCCCCCCCC(=O)OC1CCC2(C)C(=CCC3C2CCC2(C)C(C(C)CCCC(C)C)CCC32)C1` (stereo not given), the melting point lay within 79 to 83 °C.
In turn, `COc1ccc2ccc(=O)oc2c1` gave a melting point of 119 °C.
As to `O=Cc1ccc(OCc2c(F)cccc2Cl)cc1`, the melting point is 74 to 78 °C.
`O=C(O)c1ccc2c(c1)C(=O)c1ccccc1C2=O` registered a melting point of 291 °C.
Compound `O=Cc1cc([N+](=O)[O-])ccc1Sc1ccccn1` came in with a melting point of 109 to 110 °C.

Broadly, the melting point is the temperature of the solid-liquid transition.
